# Like-named read-outs stand apart in the source and are kept apart here.
# Tests used:
# [1] = test system: HBV replication in HepAD38 cells; experiment: Anti-HBV activity in HepAD38 cells, extracellular HBV DNA by QPCR; type: cell-based, HBV (genotype D, serotype ayw)
# Method in brief: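 Seven-day compound exposure (30 μM down to 10 nM, half-log steps) after tetracycline withdrawal induced HBV replication in HepAD38 cells. Extracellular viral DNA measured by QPCR (copies/mL via standard curve), normalised to DMSO wells; EC50 from 4-parameter non-linear regression.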
# HepG2 cells = experiment: In vitro cytotoxicity, MTT cell viability assay in HepG2 cells; type: cell-based; settings: human, 7 days
# Method in brief: (§1)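 CC50 values reflect loss of HepG2 viability after a 7-day exposure at 37 °C, 5% CO2. After 3-4 h with MTT, solubilized formazan was quantified at 492 nm relative to vehicle wells.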
# [2] = as above; type: cell-based; settings: human, Cytotoxicity CC50
# Method in brief: as §1
# HBV = settings: Phase 1b clinical trial, 600 mg bid dosing for 29 days; cited from earlier work
# [3] = Hepatitis B virus, HePAD38, 168 h, read-out: Anti-HBV EC50, HepAD38 cells, extracellular HBV DNA by QPCR, 7 days of incubation
# [4] = read-out: Anti-HBV EC50, HepAD38 cells, extracellular HBV DNA by QPCR, 7 days of incubation
Structure (SMILES),"EC50 [1, 3] [µM]",CC50 (HepG2 cells) [µM],"EC50 [1, 4] [µM]",CC50 at 7 days [2] [µM],reduction in HBV DNA (HBV) [log 10]
"Cc1cc(NC(=O)c2ccc(F)c(C(F)(F)C(=O)N3C4CCC3CC(O)(CO)C4)c2)ccc1F (single isomer, unassigned; isomer 1) [Example 274]",< 5,< 5,–,–,–
"Cc1cc(NC(=O)c2ccc(F)c(C(F)(F)C(=O)N3C4CCC3CC(O)(CO)C4)c2)ccc1F (single isomer, unassigned; isomer 2) [Example 275]",–,> 30,< 5,–,–
"O=C(Nc1ccc(F)c(F)c1)c1ccc(F)c(C(F)(F)C(=O)NC2CCC(O)CC2)c1 (centres unmarked) [Example 27, 3-(1,1-difluoro-2-(((1s,4s)-4-hydroxycyclohexyl)amino)-2-oxoethyl)-N-(3,4-difluorophenyl)-4-fluorobenzamide]",–,5 to 30,< 5,–,–
"Cc1cc(NC(=O)c2c(C)c(C(O)(C(=O)NC(C)(C)C)C(F)(F)F)c(C)n2C)ccc1F (centres unmarked) [Example 155, 4-(3-(tert-butylamino)-1,1,1-trifluoro-2-hydroxy-3-oxopropan-2-yl)-N-(4-fluoro-3-methylphenyl)-1,3,5-trimethyl-1H-pyrrole-2-carboxamide]",–,5 to 30,< 5,–,–
"N#Cc1cc(NC(=O)c2ccc(F)c(C(F)(F)C(=O)N3[C@@H]4CC[C@H]3C[C@@H](O)C4)c2)ccc1F [Example 178, N-(3-cyano-4-fluorophenyl)-3-(1,1-difluoro-2-((1R,3r,5S)-3-hydroxy-8-azabicyclo[3.2.1]octan-8-yl)-2-oxoethyl)-4-fluorobenzamide]",< 5,> 30,–,–,–
"N#Cc1cc(NC(=O)c2ccc(F)c(C(F)(F)C(=O)N3CCC(O)C(F)(F)C3)c2)ccc1F (centres unmarked) [Example 191, N-(3-cyano-4-fluorophenyl)-3-(2-(3,3-difluoro-4-hydroxypiperidin-1-yl)-1,1-difluoro-2-oxoethyl)-4-fluorobenzamide]",–,5 to 30,< 5,–,–
"N#Cc1cc(NC(=O)c2ccc(F)c(C(F)(F)C(=O)N3[C@@H]4CC[C@H]3C[C@@H](O)C4)c2)ccc1F [Example 192, N-(3-cyano-4-fluorophenyl)-3-(1,1-difluoro-2-((1R,3r,5S)-3-hydroxy-8-azabicyclo[3.2.1]octan-8-yl)-2-oxoethyl)-4-fluorobenzamide]",–,5 to 30,< 5,–,–
"Cc1cc(NC(=O)c2ccc(F)c(C(F)(F)C(=O)N3Cc4sc(N)nc4C(C)(C)C3)c2)ccc1F [Example 339, 3-(2-(2-amino-7,7-dimethyl-6,7-dihydrothiazolo[5,4-c]pyridin-5(4H)-yl)-1,1-difluoro-2-oxoethyl)-4-fluoro-N-(4-fluoro-3-methylphenyl)benzamide]",< 5,–,–,5 to 30,–
"Cc1cc(NC(=O)c2ccc(F)c(C(F)(F)C(=O)N3CCc4nc(N)sc4CC3)c2)ccc1F [Example 340, 3-(2-(2-amino-4,5,7,8-tetrahydro-6H-thiazolo[4,5-d]azepin-6-yl)-1,1-difluoro-2-oxoethyl)-4-fluoro-N-(4-fluoro-3-methylphenyl)benzamide]",< 5,–,–,5 to 30,–
"Cc1cc(NC(=O)c2ccc(F)c(C(F)(F)C(=O)N3CCn4c(nnc4C(F)(F)F)C3)c2)ccc1F [Example 341, 3-(1,1-difluoro-2-oxo-2-(3-(trifluoromethyl)-5,6-dihydro-[1,2,4]triazolo[4,3-a]pyrazin-7(8H)-yl)ethyl)-4-fluoro-N-(4-fluoro-3-methylphenyl)benzamide]",5 to 30,–,–,5 to 30,–
"Cc1cc(NC(=O)c2ccc(F)c(C(F)(F)C(=O)N3C4CCCC3c3sc(N)nc3C4)c2)ccc1F (centres unmarked) [Example 342, 3-(2-(2-amino-4,5,6,7,8,9-hexahydro-5,9-epiminocycloocta[d]thiazol-10-yl)-1,1-difluoro-2-oxoethyl)-4-fluoro-N-(4-fluoro-3-methylphenyl)benzamide]",< 5,–,–,> 30,–
O=C(Nc1cc(F)c(F)c(F)c1)c1ccc(F)c(S(=O)(=O)N2CCC(O)CC2)c1 [NVR 3-778],–,–,–,–,−1.7
